In PMC5394417, “Investigating the molecular mechanism of positive and negative allosteric modulators in the calcium-sensing receptor dimer” (Scientific Reports, 2017):
Where “and” joins values, the source holds several entries; their conditions need not be identical. Equal values may be shown once.

Columns and labels:
[1] = biological target: T1, HA-S170A CaSR mutant (ATD mutant) (Rattus norvegicus, UniProt P48442, S170A); assay: IP-One assay, HEK293T transiently transfected; type: cell-based
T1 construct: mGluR5 signal peptide (N); expressed in transfected cells; host or cells: HEK293T
T1 sequence (P48442 20-1079 S170A): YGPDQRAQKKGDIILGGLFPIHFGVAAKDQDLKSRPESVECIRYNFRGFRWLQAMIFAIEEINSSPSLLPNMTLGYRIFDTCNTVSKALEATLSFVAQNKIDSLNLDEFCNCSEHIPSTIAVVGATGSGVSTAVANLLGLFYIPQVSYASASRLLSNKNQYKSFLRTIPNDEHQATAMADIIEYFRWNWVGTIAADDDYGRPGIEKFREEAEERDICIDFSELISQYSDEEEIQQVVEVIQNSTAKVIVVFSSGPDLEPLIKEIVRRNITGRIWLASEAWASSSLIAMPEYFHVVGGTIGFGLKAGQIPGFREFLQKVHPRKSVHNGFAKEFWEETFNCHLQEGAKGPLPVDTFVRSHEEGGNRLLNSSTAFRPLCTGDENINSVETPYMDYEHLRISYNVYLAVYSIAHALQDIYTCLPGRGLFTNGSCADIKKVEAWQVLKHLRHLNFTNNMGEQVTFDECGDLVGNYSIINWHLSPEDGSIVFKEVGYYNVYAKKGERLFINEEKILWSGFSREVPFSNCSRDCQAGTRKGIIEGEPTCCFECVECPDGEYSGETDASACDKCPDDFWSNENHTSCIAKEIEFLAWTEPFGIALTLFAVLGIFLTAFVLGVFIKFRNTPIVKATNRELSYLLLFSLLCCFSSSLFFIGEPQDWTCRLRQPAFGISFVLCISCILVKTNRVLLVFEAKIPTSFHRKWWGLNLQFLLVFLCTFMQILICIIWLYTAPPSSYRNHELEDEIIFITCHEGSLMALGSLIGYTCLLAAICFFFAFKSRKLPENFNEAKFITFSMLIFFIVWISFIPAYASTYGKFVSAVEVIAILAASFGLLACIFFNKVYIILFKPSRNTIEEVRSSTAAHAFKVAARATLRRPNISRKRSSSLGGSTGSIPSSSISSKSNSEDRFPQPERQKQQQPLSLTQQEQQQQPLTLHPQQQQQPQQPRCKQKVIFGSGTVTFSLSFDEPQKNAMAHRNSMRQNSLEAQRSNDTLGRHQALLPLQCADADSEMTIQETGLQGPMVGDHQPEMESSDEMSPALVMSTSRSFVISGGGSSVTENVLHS
Description: (§1) Human embryonic kidney (HEK) 293T cells were cultured in DMEM supplemented with 10% dFBS and 1% P/S at 37 °C and 5% CO2. 48 h prior to assay, transient transfection was performed using Lipofectamine 2000 as the transfection reagent. White opaque 96-well culture plates (PerkinElmer, Waltham, MA, USA) were used for the ELISA and the TR-FRET dimerization assay, while clear tissue culture treated 96-well plates (Corning, Corning, NY, USA) were used for the IP-One assay. Both plate types were coated with poly-D-lysine before addition of cells and transfection mix. 0.25 μl/well of Lipofectamine 2000 were diluted in 25 μl/well of Opti-MEM and incubated at room temperature (RT) for 5 min. 0.03 μg/well of DNA was diluted in 25 μl/well of Opti-MEM, and subsequently mixed with the Lipofectamine 2000 dilution and incubated 20 min at RT before addition to the plates. Cell suspensions of 170.000 HEK293T cells/mL were prepared in complete growth medium and 100 μl/well (17.000 cells/well) was added to the plates, which were incubated for 48 h at 37 °C and 5% CO2 before performing assays.
(§2) Functional activity was measured using the IP-One assay, which is an IP1 accumulation assay. For agonist testing, ligands were prepared in final concentrations in ligand buffer (HBSS, 20 mM HEPES, pH 7.4 supplemented with 20 mM LiCl). Cells were washed once with 100 μl/well of assay buffer (HBSS, 20 mM HEPES, pH 7.4) and 50 μl/well of agonist solution was added after which plates were incubated at 37 °C for 30 min. Subsequently, ligand solutions were removed and cells were washed with 100 μl/well of assay buffer. Cell lysis was performed by addition of 30 μl/well of IP-One Conjugate & Lysis Buffer (Cisbio Bioassays, Codolet, France) and plates were incubated at RT for 30 min. Afterwards, 30 μl/well of assay buffer was added to dilute the cell lysate. 10 μl/well of cell lysate was transferred from the 96-well plate to a 384-well Optiplate and 10 μl/well of detection solution (Assay buffer + 2.5% of anti-IP1 antibody cryptate Terbium conjugate + 2.5% IP1-d2 conjugate (Cisbio Bioassays, Codolet, France)) was also added. The 384-well plate was incubated for 1 h at RT in dark before being measured on an EnVision plate reader (PerkinElmer, Waltham, MA, USA). Upon excitation at 340 nm, emission at 615 nm and 665 nm was measured, and the FRET ratio (665 nm/615 nm) was converted to IP1 concentrations by interpolating values from an IP1 standard curve generated from a provided IP1 calibrator (Cisbio Bioassays, Codolet, France). When testing allosteric modulators, cells were pre-incubated for 30 min at 37 °C with 50 μl/well of ligand buffer supplemented with allosteric modulator and a final concentration of 1% DMSO. Afterwards, the buffer solution was removed and 50 μl/well of agonist solution in ligand buffer supplemented with allosteric modulator and a final concentration of 1% DMSO was added. Plates were incubated for 30 min at 37 °C followed by one wash in 100 μl/well of assay buffer. Cell lysis and detection was performed as described above.

[2] = biological target: T2, S170A/E837A:F801A heterodimer (Rattus norvegicus, UniProt P48442, E837A/F801A/S170A); assay: IP-One trans-activation assay, co-expression 1:1 in HEK293T; type: cell-based
T2 construct: mGluR5 signal peptide (N); expressed in transfected cells; host or cells: HEK293T
Description: as §1, §2

T2 sequence (P48442 20-1079 S170A/E837A): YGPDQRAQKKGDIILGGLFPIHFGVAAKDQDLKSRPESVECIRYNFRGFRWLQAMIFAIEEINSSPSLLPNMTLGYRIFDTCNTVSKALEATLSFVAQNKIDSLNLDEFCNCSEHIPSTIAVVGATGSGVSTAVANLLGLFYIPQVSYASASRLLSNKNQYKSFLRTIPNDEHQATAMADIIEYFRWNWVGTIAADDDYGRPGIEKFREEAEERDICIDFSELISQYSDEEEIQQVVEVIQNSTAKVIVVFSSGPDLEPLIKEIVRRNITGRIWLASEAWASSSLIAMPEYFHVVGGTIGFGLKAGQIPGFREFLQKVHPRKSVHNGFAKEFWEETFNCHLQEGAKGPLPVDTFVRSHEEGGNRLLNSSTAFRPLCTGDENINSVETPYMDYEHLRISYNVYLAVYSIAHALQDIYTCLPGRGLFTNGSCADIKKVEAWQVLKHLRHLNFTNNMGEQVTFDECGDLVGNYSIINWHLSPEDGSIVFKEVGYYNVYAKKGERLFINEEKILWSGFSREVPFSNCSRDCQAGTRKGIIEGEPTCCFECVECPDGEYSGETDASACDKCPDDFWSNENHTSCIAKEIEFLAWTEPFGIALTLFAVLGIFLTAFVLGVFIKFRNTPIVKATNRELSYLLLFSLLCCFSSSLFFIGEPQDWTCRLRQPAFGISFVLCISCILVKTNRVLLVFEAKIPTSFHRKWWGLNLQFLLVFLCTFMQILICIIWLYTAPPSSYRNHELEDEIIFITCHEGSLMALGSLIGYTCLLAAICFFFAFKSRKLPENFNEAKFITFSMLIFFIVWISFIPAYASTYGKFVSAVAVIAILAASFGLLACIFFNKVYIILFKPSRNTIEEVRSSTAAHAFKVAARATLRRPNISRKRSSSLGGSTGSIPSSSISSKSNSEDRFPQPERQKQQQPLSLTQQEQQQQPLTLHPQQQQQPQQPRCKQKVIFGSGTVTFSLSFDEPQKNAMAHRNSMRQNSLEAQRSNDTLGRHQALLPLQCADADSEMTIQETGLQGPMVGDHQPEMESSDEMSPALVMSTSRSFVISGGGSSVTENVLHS
T2 sequence (P48442 20-1079 F801A): as the sequence (P48442 20-1079 S170A/E837A) above, with A151S, F782A, A818E counted along it

| SMILES | EC50 ([1]; HA-S170A, Ca^2+ alone) | Max ± S.E.M. ([1]; HA-S170A, normalized to maximum response of WT CaSR, at highest tested Ca^2+ concentration) | potentiation of Ca^2+-mediated response ([2]; S170A/E837A:F801A heterodimer, 0.05, 0.1 and 1 μM NPS R-568) | effect on Ca^2+-mediated response ([2]; S170A/E837A:F801A heterodimer, highest tested concentration of NPS R-568 (1 μM)) | potentiation of Ca^2+-mediated response ([1]; S170A co-expressed with pEGFPN1, 23 mM Ca^2+, 0.05, 0.1 and 1 μM NPS R-568) |
| --- | --- | --- | --- | --- | --- |
| [Ca+2] [Ca^2+] | > 45 mM | 17% and 17 ± 0.7% |  |  |  |
| COc1cccc([C@@H](C)NCCCc2ccccc2Cl)c1.Cl [NPS R-568, NPS R-568 hydrochloride] |  |  | no potentiation was observed | inhibited | concentration-dependent potentiation |
